Source: the NIST ThermoML archive (doi:10.1016/j.jct.2018.12.006)

Experiment: molar heat capacity at constant pressure
Conditions: Crystal, Small (less than 1 g) adiabatic calorimetry

C[N+](C)(C)C[C@H](O)CC(=O)[O-] [(R)-3-hydroxy-4-(trimethylammonio)butanoate]
Conditions | molar heat capacity at constant pressure [J/K/mol]
5 K, 101.33 kPa | 0.29
6.08 K, 100 kPa | 0.53
6.27 K, 100 kPa | 0.571
6.41 K, 100 kPa | 0.622
6.56 K, 100 kPa | 0.669
6.69 K, 100 kPa | 0.727
6.83 K, 100 kPa | 0.774
6.95 K, 100 kPa | 0.787
7.08 K, 100 kPa | 0.832
7.19 K, 100 kPa | 0.851
7.48 K, 100 kPa | 0.985
7.82 K, 100 kPa | 1.107
8.18 K, 100 kPa | 1.278
8.52 K, 100 kPa | 1.441
8.75 K, 100 kPa | 1.53
9.06 K, 100 kPa | 1.689
9.34 K, 100 kPa | 1.836
9.62 K, 100 kPa | 2.018
9.93 K, 100 kPa | 2.207
10 K, 101.33 kPa | 2.25
10.24 K, 100 kPa | 2.402
10.56 K, 100 kPa | 2.616
10.88 K, 100 kPa | 2.869
11.21 K, 100 kPa | 3.127
11.62 K, 100 kPa | 3.417
11.9 K, 100 kPa | 3.675
12.69 K, 100 kPa | 4.369
13.96 K, 100 kPa | 5.657
15 K, 101.33 kPa | 6.89
15.22 K, 100 kPa | 7.205
16.5 K, 100 kPa | 8.836
17.79 K, 100 kPa | 10.57
19.1 K, 100 kPa | 12.27
20 K, 101.33 kPa | 13.41
20.43 K, 100 kPa | 13.99
22.35 K, 100 kPa | 16.18
24.86 K, 100 kPa | 19.02
25 K, 101.33 kPa | 19.34
27.27 K, 100 kPa | 21.98
29.7 K, 100 kPa | 24.73
30 K, 101.33 kPa | 25.01
32.15 K, 100 kPa | 27.39
34.61 K, 100 kPa | 30.12
35 K, 101.33 kPa | 30.61
37.06 K, 100 kPa | 32.92
39.52 K, 100 kPa | 35.77
40 K, 101.33 kPa | 36.27
41.98 K, 100 kPa | 38.6
44.45 K, 100 kPa | 41.3
45 K, 101.33 kPa | 41.94
46.92 K, 100 kPa | 43.9
49.4 K, 100 kPa | 46.7
50 K, 101.33 kPa | 47.51
51.56 K, 100 kPa | 49.36
53.43 K, 100 kPa | 51.37
55.31 K, 100 kPa | 53.34
57.23 K, 100 kPa | 55.32
59.08 K, 100 kPa | 57.13
60 K, 101.33 kPa | 57.97
60.96 K, 100 kPa | 58.68
62.84 K, 100 kPa | 60.64
64.71 K, 100 kPa | 62.32
66.57 K, 100 kPa | 64.28
68.43 K, 100 kPa | 65.98
70 K, 101.33 kPa | 67.35
70.29 K, 100 kPa | 67.73
72.16 K, 100 kPa | 69.2
74.04 K, 100 kPa | 70.9
75.9 K, 100 kPa | 72.29
77.76 K, 100 kPa | 74.17
79.61 K, 100 kPa | 75.69
80 K, 101.33 kPa | 75.9
81.77 K, 100 kPa | 77.54
84.24 K, 100 kPa | 79.31
84.82 K, 100 kPa | 79.43
86.69 K, 100 kPa | 81.13
88.65 K, 100 kPa | 82.96
90 K, 101.33 kPa | 83.98
92.22 K, 100 kPa | 85.77
95.79 K, 100 kPa | 88.51
99.36 K, 100 kPa | 91.34
100 K, 101.33 kPa | 91.81
102.92 K, 100 kPa | 94.28
106.48 K, 100 kPa | 96.97
110 K, 101.33 kPa | 99.54
110.02 K, 100 kPa | 99.66
113.57 K, 100 kPa | 102.4
117.1 K, 100 kPa | 105
120 K, 101.33 kPa | 107.5
120.63 K, 100 kPa | 107.7
124.16 K, 100 kPa | 110.4
127.68 K, 100 kPa | 113
130 K, 101.33 kPa | 114.7
131.19 K, 100 kPa | 115.4
134.7 K, 100 kPa | 117.9
138.2 K, 100 kPa | 120.5
140 K, 101.33 kPa | 121.6
141.66 K, 100 kPa | 122.9
145.14 K, 100 kPa | 125.4
148.61 K, 100 kPa | 127.8
150 K, 101.33 kPa | 128.6
152.07 K, 100 kPa | 130.3
155.53 K, 100 kPa | 132.7
158.97 K, 100 kPa | 135
160 K, 101.33 kPa | 135.8
162.41 K, 100 kPa | 137.4
165.85 K, 100 kPa | 139.7
169.27 K, 100 kPa | 142.1
170 K, 101.33 kPa | 142.8
172.68 K, 100 kPa | 144.4
176.08 K, 100 kPa | 146.7
179.48 K, 100 kPa | 149
180 K, 101.33 kPa | 149.2
182.87 K, 100 kPa | 151.1
186.24 K, 100 kPa | 153.1
189.61 K, 100 kPa | 154.7
190 K, 101.33 kPa | 154.7
192.97 K, 100 kPa | 156.2
196.22 K, 100 kPa | 157.8
199.57 K, 100 kPa | 159.7
200 K, 101.33 kPa | 160.1
202.89 K, 100 kPa | 161.9
203.31 K, 100 kPa | 162.1
206.21 K, 100 kPa | 163.8
206.83 K, 100 kPa | 163.9
209.52 K, 100 kPa | 165.7
210 K, 101.33 kPa | 166
210.24 K, 100 kPa | 166.4
212.83 K, 100 kPa | 167.6
213.66 K, 100 kPa | 168.2
216.13 K, 100 kPa | 169.6
219.43 K, 100 kPa | 171.7
220 K, 101.33 kPa | 172.2
222.71 K, 100 kPa | 173.9
225.97 K, 100 kPa | 176
229.25 K, 100 kPa | 178.3
230 K, 101.33 kPa | 178.6
232.54 K, 100 kPa | 180.4
235.81 K, 100 kPa | 182.5
239.07 K, 100 kPa | 184.6
240 K, 101.33 kPa | 185.1
242.32 K, 100 kPa | 186.7
245.56 K, 100 kPa | 188.8
248.62 K, 100 kPa | 190.6
250 K, 101.33 kPa | 191.6
251.85 K, 100 kPa | 192.6
255.07 K, 100 kPa | 194.8
257.5 K, 100 kPa | 196.2
260 K, 101.33 kPa | 198.2
260.89 K, 100 kPa | 199.2
264.26 K, 100 kPa | 200.6
267.64 K, 100 kPa | 203.5
270 K, 101.33 kPa | 205
271 K, 100 kPa | 205.7
273.15 K, 101.33 kPa | 207.2
274.35 K, 100 kPa | 208.2
277.7 K, 100 kPa | 210.3
280 K, 101.33 kPa | 211.9
281.03 K, 100 kPa | 212.6
284.35 K, 100 kPa | 214.7
287.63 K, 100 kPa | 217.8
290 K, 101.33 kPa | 218.9
290.92 K, 100 kPa | 219.8
294.21 K, 100 kPa | 221
297.46 K, 100 kPa | 224.2
298.15 K, 101.33 kPa | 224.7
300 K, 101.33 kPa | 226
300.21 K, 100 kPa | 225.9
302.94 K, 100 kPa | 227.7
306.14 K, 100 kPa | 230.3
309.33 K, 100 kPa | 232.6
310 K, 101.33 kPa | 233.1
312.5 K, 100 kPa | 234.8
315.65 K, 100 kPa | 237.1
318.79 K, 100 kPa | 239.5
320 K, 101.33 kPa | 240.1
321.91 K, 100 kPa | 241.3
325.01 K, 100 kPa | 243.5
328.09 K, 100 kPa | 245.8
330 K, 101.33 kPa | 247.2
331.16 K, 100 kPa | 248.1
334.21 K, 100 kPa | 250.7
337.21 K, 100 kPa | 251.9
340 K, 101.33 kPa | 254.2
340.22 K, 100 kPa | 254.1
343.21 K, 100 kPa | 256.3
346.17 K, 100 kPa | 258.6
350 K, 101.33 kPa | 261
